Key:
[1] = tested on: microchannels in skin made by a microneedle device; assay: In vivo impedance after microneedle pretreatment; settings: swine; DPG formulated with saturated compound, applied after microneedle pretreatment; FIG. 5
Procedure: Impedance (Z) was assessed in vivo in swine as a measure of skin integrity using the compositions described above. Microneedle devices were inserted into swine with an applicator and removed, followed by application of the formulations. Impedance was measured before and after microneedle pretreatment, and during application of the formulations (formulations were removed and reapplied at every time point).
FIG. 5 illustrates the in vivo impedance measured before and after microneedle pretreatment for the five formulations.

[2] = tested on: microchannels in skin made by a microneedle device; assay: In vivo transepidermal water loss (TEWL) after microneedle pretreatment; settings: swine; DPG formulated with saturated compound, applied after microneedle pretreatment; FIG. 4
Procedure: Transepidermal water loss (TEWL) was assessed in vivo in swine as an indicator of skin integrity before and after microneedle pretreatment, using dipropylene glycol (DPG) formulated with saturated (i) cholesterol, (ii) curcumin, (iii) glycyrrhizin, (iv) diclofenac, or (v) no anti-healing compound. The diclofenac formulation was used as a positive control, and the formulation with no anti-healing compound was used as a negative control. Microneedle devices were inserted into swine skin with an applicator and removed, followed by application of the formulations. TEWL was measured before and after microneedle pretreatment, and during application of the formulations (formulations were removed and reapplied at every time point).
FIG. 4 illustrates the in vivo transepidermal water loss measured before and after microneedle pretreatment for the five formulations.

[3] = tested on: microchannels; settings: reported in the literature; cited from earlier work

Compound	impedance (Z) [1]	transepidermal water loss (TEWL), sustained level [2]	lifetime of microchannels [3]
CC1(C)[C@@H](O[C@H]2O[C@H](C(=O)O)[C@@H](O)[C@H](O)[C@H]2O[C@@H]2O[C@H](C(=O)O)[C@@H](O)[C@H](O)[C@H]2O)CC[C@]2(C)[C@H]3C(=O)C=C4[C@@H]5C[C@@](C)(C(=O)O)CC[C@]5(C)CC[C@@]4(C)[C@]3(C)CC[C@@H]12 [glycyrrhizin]	low impedance throughout the study	higher sustained levels of TEWL than the formulation with no anti-healing compound	
COc1cc(/C=C/C(=O)CC(=O)/C=C/c2ccc(O)c(OC)c2)ccc1O [curcumin]	low impedance throughout the study	higher sustained levels of TEWL than the formulation with no anti-healing compound	
CC(C)CCC[C@@H](C)[C@H]1CC[C@H]2[C@@H]3CC=C4C[C@@H](O)CC[C@]4(C)[C@H]3CC[C@]12C [cholesterol]	low impedance throughout the study	higher sustained levels of TEWL than the formulation with no anti-healing compound	
O=C(O)Cc1ccccc1Nc1c(Cl)cccc1Cl [diclofenac, reference compound]	low impedance throughout the study	highest sustained level of TEWL	extend the lifetime of microchannels

— patent US9987361B1, “Compositions and method for sustained drug delivery by active transdermal technology” (Noven Pharmaceuticals, Inc., priority 2014, dated 2018)
